We go through 3 compounds from ChEMBL document CHEMBL5131467, “Multivalent peptide dendrimers inhibit the fusion of viral-cellular membranes and the cellular NF-κB signaling pathway” (Eur J Med Chem, 2022).

In this assay the test system is Influenza A virus. The experiment in a line: Antiviral activity against Influenza A virus (A/Puerto Rico/8/1934(H1N1)) NA-H374Y mutant infected in MDCK cells incubated for 1 hr by MTT assay. The class given is functional, organism-based.

Usually pIC50 stands for the IC50 on a negative log10 scale, so that one unit is a factor of ten. The low end stands for a high IC50, the high end for a low IC50.

pIC50: −log10 of the molar value. Where a SMILES comes first, the peptide text is derived from it. Bridges are numbered along the chain shown (N, C = ends). Roman numbers before positions name the chains, in order. Side-chain parts run from the residue outwards. The star is where a group is joined. Acetyl(2-naphthyl) = O=C(Cc1ccc2ccccc2c1)*; Fmoc = O=C(OCC1c2ccccc2-c2ccccc21)*

`CCOC(=O)c1c(CSc2ccccc2)n(C)c2cc(Br)c(O)c(CN(C)C)c12.Cl` gave a negative logarithm of the IC50 (pIC50) of 6.22.

The compound `NCCCC[C@H](NC(=O)OCC1c2ccccc2-c2ccccc21)C(=O)N[C@@H](CCCCN)C(=O)N[C@@H](Cc1c[nH]c2ccccc12)C(=O)N[C@@H](CCCCN)C(=O)NCCCC[C@H](NC(=O)[C@H](CCCCN)NC(=O)[C@H](Cc1c[nH]c2ccccc12)NC(=O)[C@H](CCCCN)NC(=O)[C@H](CCCCN)NC(=O)OCC1c2ccccc2-c2ccccc21)C(=O)NCCCC[C@H](NC(=O)[C@H](CCCCNC(=O)[C@H](CCCCN)NC(=O)[C@H](Cc1c[nH]c2ccccc12)NC(=O)[C@H](CCCCN)NC(=O)[C@H](CCCCN)NC(=O)OCC1c2ccccc2-c2ccccc21)NC(=O)[C@H](CCCCN)NC(=O)[C@H](Cc1c[nH]c2ccccc12)NC(=O)[C@H](CCCCN)NC(=O)[C@H](CCCCN)NC(=O)OCC1c2ccccc2-c2ccccc21)C(=O)NCC(=O)O` (I: Fmoc-KKWKK([Lys-Trp-Lys-Lys-Fmoc])KG-OH / II: Fmoc-KKWKK([Lys-Trp-Lys-Lys-Fmoc]); amide I:6-II:C) gave a negative logarithm of the IC50 (pIC50) of 6.27.

`NCCCC[C@H](NC(=O)Cc1ccc2ccccc2c1)C(=O)N[C@@H](CCCCN)C(=O)N[C@@H](Cc1c[nH]c2ccccc12)C(=O)N[C@@H](CCCCN)C(=O)NCCCC[C@H](NC(=O)[C@H](CCCCN)NC(=O)[C@H](Cc1c[nH]c2ccccc12)NC(=O)[C@H](CCCCN)NC(=O)[C@H](CCCCN)NC(=O)Cc1ccc2ccccc2c1)C(=O)NCCCC[C@H](NC(=O)[C@H](CCCCNC(=O)[C@H](CCCCN)NC(=O)[C@H](Cc1c[nH]c2ccccc12)NC(=O)[C@H](CCCCN)NC(=O)[C@H](CCCCN)NC(=O)Cc1ccc2ccccc2c1)NC(=O)[C@H](CCCCN)NC(=O)[C@H](Cc1c[nH]c2ccccc12)NC(=O)[C@H](CCCCN)NC(=O)[C@H](CCCCN)NC(=O)Cc1ccc2ccccc2c1)C(=O)NCC(=O)O` (I: {Acetyl(2-naphthyl)}-KKWKK([Lys-Trp-Lys-Lys-Acetyl(2-naphthyl)])KG-OH / II: {Acetyl(2-naphthyl)}-KKWKK([Lys-Trp-Lys-Lys-Acetyl(2-naphthyl)]); amide I:6-II:C): the pIC50 was 6.80.
